Assay results as given in patent US9409866B2, “Pyridine-2-amides useful as CB2 agonists” (Hoffmann-La Roche Inc., priority 2012, dated 2016).
Like-named read-outs stand apart in the source and are kept apart here.

Legend:
human CB1 receptors = human CB1 receptors (Homo sapiens (Human), UniProt P21554); assay: functional cAMP assay, CHO cells expressing human CB1; assay type: cell-based
Summary of the method: (§1)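 CHO-hCB1/hCB2 cells, KRB + 1 mM IBMX preincubation 30 min 30 °C; cpd 30 min 30 °C; lysis + TR-FRET cAMP detection, 2 h RT; cAMP from std curve; EC50.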

human CB2 receptors = human CB2 receptors (Homo sapiens (Human), UniProt P34972); assay: functional cAMP assay, CHO cells expressing human CB2; assay type: cell-based
Sequence of human CB2 receptors (P34972 whole entry): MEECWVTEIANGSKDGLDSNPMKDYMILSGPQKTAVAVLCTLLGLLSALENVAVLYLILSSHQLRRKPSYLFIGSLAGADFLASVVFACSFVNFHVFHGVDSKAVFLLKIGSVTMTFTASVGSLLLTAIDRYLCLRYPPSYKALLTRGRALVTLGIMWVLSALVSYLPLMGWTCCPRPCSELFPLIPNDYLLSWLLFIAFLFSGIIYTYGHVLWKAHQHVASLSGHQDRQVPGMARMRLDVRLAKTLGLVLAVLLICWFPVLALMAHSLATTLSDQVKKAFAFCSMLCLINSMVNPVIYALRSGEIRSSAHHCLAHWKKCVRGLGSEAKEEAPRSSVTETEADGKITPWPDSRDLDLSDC
Summary of the method: as §1

[1] = functional cAMP assay, CHO cells expressing human CB1, read-out: Human CB1 EC50
[2] = Human CB1 EC50 (uM), functional cAMP assay, CHO cells expressing human CB1

Sequence of human CB1 receptors (P21554 whole entry): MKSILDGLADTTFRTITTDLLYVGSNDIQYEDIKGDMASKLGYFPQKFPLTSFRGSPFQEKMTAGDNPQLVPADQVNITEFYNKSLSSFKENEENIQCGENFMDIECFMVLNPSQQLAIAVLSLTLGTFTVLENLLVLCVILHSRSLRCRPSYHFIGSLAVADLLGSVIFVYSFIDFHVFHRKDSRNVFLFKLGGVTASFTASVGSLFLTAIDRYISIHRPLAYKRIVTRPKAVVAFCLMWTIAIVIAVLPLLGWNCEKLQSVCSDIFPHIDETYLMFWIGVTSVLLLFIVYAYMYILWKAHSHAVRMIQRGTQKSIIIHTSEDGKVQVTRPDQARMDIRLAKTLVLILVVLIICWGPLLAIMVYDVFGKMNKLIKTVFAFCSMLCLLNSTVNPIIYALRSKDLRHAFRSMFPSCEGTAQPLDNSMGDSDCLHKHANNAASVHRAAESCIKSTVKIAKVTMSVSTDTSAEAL

Row | SMILES | EC50 (human CB1 receptors; [1]) | EC50 (human CB2 receptors; read-out: Human CB2 EC50) | EC50 (human CB1 receptors) | EC50 (human CB1 receptors; [2]) | EC50 (human CB2 receptors; Human CB2 EC50 (uM))
1 | Cc1nc(C(C)(CS(C)(=O)=O)NC(=O)c2cc(O[C@@H](C)C(F)(F)F)c(C3(F)CCC3)cn2)no1 (stereo partly drawn) [Example 130, 5-(1-fluorocyclobutyl)-N-[2-(5-methyl-1,2,4-oxadiazol-3-yl)-1-methylsulfonylpropan-2-yl]-4-[(2S)-1,1,1-trifluoropropan-2-yl]oxypyridine-2-carboxamide] | > 10 µM | 0.0234 µM |  |  | 
2 | Cc1nc(C(C)(CC2CC2)NC(=O)c2cc(OCC(F)(F)F)c(C3CCC3)cn2)no1 (stereo not shown) [Example 108, 5-Cyclobutyl-4-(2,2,2-trifluoro-ethoxy)-pyridine-2-carboxylic acid [2-cyclopropyl-1-methyl-1-(5-methyl-[1,2,4]oxadiazol-3-yl)-ethyl]-amide] | 0.79 µM | 0.0027 µM |  |  | 
3 | Cc1nc(C(C)(CS(C)(=O)=O)NC(=O)c2cc(OCC(F)(F)F)c(C3(F)COC3)cn2)no1 (single isomer, unassigned) [Example 132, 5-(3-fluorooxetan-3-yl)-N-[2-(5-methyl-1,2,4-oxadiazol-3-yl)-1-methylsulfonylpropan-2-yl]-4-(2,2,2-trifluoroethoxy)pyridine-2-carboxamide] |  | 0.333 µM | > 10 µM |  | 
4 | Cn1nnc(C(NC(=O)c2cc(OCC(F)(F)F)c(C3CC3)cn2)C(C)(C)C)n1 (stereo not shown) [Example 163, 5-cyclopropyl-N-[2,2-dimethyl-1-(2-methyltetrazol-5-yl)propyl]-4-(2,2,2-trifluoroethoxy)pyridine-2-carboxamide] | > 10 µM | 0.0045 µM |  |  | 
5 | C[C@H](Oc1cc(C(=O)NC(C(=O)N2CCC23COC3)C(C)(C)C)ncc1C1CC1)C(F)(F)F (stereo partly drawn) [Example 204, 5-cyclopropyl-N-[3,3-dimethyl-1-(6-oxa-1-azaspiro[3.3]heptan-1-yl)-1-oxobutan-2-yl]-4-[(2S)-1,1,1-trifluoropropan-2-yl]oxypyridine-2-carboxamide] | > 10 µM | 0.0646 µM |  |  | 
6 | CNC(=O)C(NC(=O)c1cc(OCC(F)(F)F)c(C2CC2)cn1)C(C)(C)F (stereo not shown) [Example 237, 5-cyclopropyl-N-[3-fluoro-3-methyl-1-(methylamino)-1-oxobutan-2-yl]-4-(2,2,2-trifluoroethoxy)pyridine-2-carboxamide] | > 10 µM | 0.017 µM |  |  | 
7 | C[C@H](Oc1cc(C(=O)NC(C)(CC(N)=O)C2CC2)ncc1C1(F)COC1)C(F)(F)F (single isomer, unassigned) [Example 277] |  |  |  | > 10 µM | 0.0431 µM
8 | CC(C)[C@](C)(CO)NC(=O)c1cc(Cc2ccc(F)cc2)c(Cl)cn1 [Example 15, 5-Chloro-4-(4-fluoro-benzyl)-pyridine-2-carboxylic acid ((R)-1-hydroxymethyl-1,2-dimethyl-propyl)-amide] | > 10 µM | 0.0058 µM |  |  | 
9 | Cc1nc(C(C)(CS(C)(=O)=O)NC(=O)c2cc(O[C@@H](C)C(F)(F)F)c(C3CCC3)cn2)no1 (stereo partly drawn) [Example 118, 5-cyclobutyl-N-[2-(5-methyl-1,2,4-oxadiazol-3-yl)-1-methylsulfonylpropan-2-yl]-4-[(2S)-1,1,1-trifluoropropan-2-yl]oxypyridine-2-carboxamide] | > 10 µM | 0.0017 µM |  |  | 
10 | CC(C)C[C@](C)(CO)NC(=O)c1cc(OCC2CC2)c(Cl)cn1 [Example 28, (+)-5-Chloro-4-cyclopropylmethoxy-pyridine-2-carboxylic acid (1-hydroxymethyl-1,3-dimethyl-butyl)-amide] | > 10 µM | 0.0263 µM |  |  | 
11 | Cc1nc(C(C)(NC(=O)c2cc(OCC(F)(F)F)c(C3(F)COC3)cn2)C2CC2)no1 (single isomer, unassigned) [Example 166, N-[1-cyclopropyl-1-(5-methyl-1,2,4-oxadiazol-3-yl)ethyl]-5-(3-fluorooxetan-3-yl)-4-(2,2,2-trifluoroethoxy)pyridine-2-carboxamide] |  |  |  | > 10 µM | 0.31 µM
